Data published in article PMC4839297, “HTS-Driven Discovery of New Chemotypes with West Nile Virus Inhibitory Activity” (Molecules, 2010).
Where two headings read alike, the source gives them in different places.

How the values were obtained:
[1] = test system: WNV (NY-99 strain) infection of Vero E6 cells; experiment: Single dose primary HTS, CPE based (CellTiter-Glo), 384-well; assay type: cell-based, West Nile virus
[2] = test system: WNV (NY-99 strain) infection of Vero E6 cells; experiment: Time of addition assay in dose response format; assay type: cell-based, West Nile virus; settings: for EC50 change pattern (time of addition): Table 2; for EC50 change pattern over the course of infection: Table 3, compound added at -1, 4, 8, 18 h post-infection; for EC50: West Nile virus, Vero C1008, 18 h, read-out: EC50 in time of addition assay
Method: The compounds selected by the primary and dose response screening were re-supplied from the suppliers as a solid form except 4 compounds; SMR000394098, SMR000059052, SMR000027739 and SRI-4578, which were not available at that time (Table 1). Time of addition assays were conducted in a dose response format with the 20 compounds. Serially diluted compounds were added to Vero E6 cells at -1, 4, 8 and 18 h post-infection. Luminescent data was calculated (as above) to obtain EC50 values for each compound at each time point of addition.
The EC50 of MPA was within a range of 2.0~5.0 μM regardless of when it was added.
(§1) Cytotoxicity and antiviral efficacy were performed in a dose-response format in parallel. Compounds were serially diluted in complete media (MEM-E) with a 0.5% DMSO final concentration and adding 5 μL to cell plates, identical to the stacked plate method. A ten point, two-fold dilution series of compound concentrations ranging from 30 μM to 0.059 μM were used in the assay. Virus (0.04 MOI) or media was added for antiviral effect or cytotoxicity respectively. The plates were incubated 96 h in a 5% CO2 incubator at 37 °C. Cell viability was measured as stated above. The serially diluted compounds were also used for time of addition studies adding to the infected cells in 384-well plates at -1, 4, 8 and18 h post-infection with WNV (0.02 MOI). The plates were then developed as above 96 h after infection. The EC50 value was calculated for each time of addition point.

[3] = test system: WNV progeny virus in Vero E6 cells; experiment: Titer reduction assay (TCID50 of progeny virus); assay type: cell-based, West Nile virus; set-up: SI50 *: unit not given beside the values; settings: for SI50 *: Table 3, footnote to * not given; for EC50 / EC90 / inhibition at 15 µM: West Nile virus; for EC50 / EC90: Vero C1008, 48 h; for EC50: read-out: Dose response in Titer reduction EC50; for EC90: read-out: Dose response in Titer reduction EC90; for inhibition at 15 µM: Vero C1008, read-out: inhibition of progeny virus titer
Method: Finally, we employed a titer reduction assay to confirm the antiviral activity of the seven compounds confirmed in the assays. The titer of the progeny virus produced in the presence of the compounds was measured in TCID50 format. […] The titer reduction assay confirmed the antiviral activity of the hit compounds selected through our pathway (Figure 6).
Vero E6 cells were seeded in a 12-well plate in a volume of 1 mL and incubated overnight at 37 °C and 5% CO2. The next day media was aspirated from the cells and they were infected by adsorption of WNV (0.1 MOI) for one hour in 100 μL media. After aspirating the virus and washing the cells with phosphate buffered saline, media was replenished containing compounds at various concentrations. The plates were incubated for 48 h. Progeny virus titer was measured by TCID50 assay in 384-well plate format with 6 wells per dilution of virus. CellTiter-Glo® reagent was employed to determine a cell death which is a sign of infection. A well with a luminescence signal less than the mean of the non-infected control signal, minus 5 times the standard deviation of the control, was regarded as a positive infection. The TCID50 was calculated with the numbers of positive infection and negative infection by the Reed-Muench method.

[4] = Cytotoxicity in dose-response format (CellTiter-Glo); assay type: cell-based; settings: African green monkey, Vero E6 cells (uninfected)
Method: (§2) To confirm the activity and to test the cytotoxicity, the top 110 inhibitory compounds were evaluated in a dose response assay using the identical screen.
as §1, with “A ten point, two-fold dilution series of compound concentrations ranging from 30 μM to 0.059 μM were used in the assay.” left out
(§3) The Z′ value was employed to evaluate the assay’s robustness and was calculated from 1-(3×standard deviation of cell control (σc) + 3* standard deviation of the virus control (σv)/ [mean cell control signal (μc) minus mean virus control signal (μv)]). The signal/background (S/B) was calculated from the mean cell control signal (μc) divided by the mean virus control signal (μv). The signal/noise (S/N) was calculated from mean cell control signal (μc) minus mean virus control signal (μv) divided by the (standard deviation of the cell control signal (σc)^2 […] the standard deviation of the virus control signal (σv)^2)^1/2 [24]. The effective concentration at which the drug inhibited cell death at 50% in the presence of virus (EC50) and the cytotoxicity of the drug alone at 50% (CC50) were calculated using ActivityBase software (IDBS, Inc, Guildford, UK). CPE inhibition (%) and cell viability were calculated as described in elsewhere. The standard curve analysis function in SigmaPlot™ was used to calculate the inhibitory concentration (IC50 and IC50 values) for the protease and titer reduction assays.

WNV NS2b-NS3pro = target: T1, WNV NS2b-NS3pro (West Nile virus, UniProt Q9Q6P4); experiment: WNV NS2b-NS3pro FRET based enzymatic assay; assay type: biochemical
T1 construct: A recombinant NS3 protease expressed and purified from E.coli; purchased AnaSpec Inc (CA, USA); host or cells: E. coli
T1 sequence (Q9Q6P4 1506-1683 limits assumed, looked up): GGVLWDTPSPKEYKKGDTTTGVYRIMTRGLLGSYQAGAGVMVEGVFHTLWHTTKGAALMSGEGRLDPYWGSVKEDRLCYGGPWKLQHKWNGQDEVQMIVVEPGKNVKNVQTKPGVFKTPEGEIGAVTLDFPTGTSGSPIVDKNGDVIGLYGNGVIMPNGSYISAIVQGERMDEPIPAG
T1 sequence (Q9Q6P4 1423-1470 partner limits assumed, looked up): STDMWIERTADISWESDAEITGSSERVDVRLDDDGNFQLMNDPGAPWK
Excerpt: The results from the time of addition assay led us to examine the NS3 protease as a potential target of the hit compounds. NS3 protease is an important enzyme responsible for the maturation of viral proteins at early stage during the replication of virus in the host cells. We tested the compounds for an inhibitory activity on NS3 protease using a FRET based, in vitro, enzymatic assay.
A recombinant NS3 protease expressed and purified from E.coli with the cofactor NS2b (residues 49-96) and a fluorescence resonance energy transfer (FRET) based assay kit were purchased from AnaSpec Inc (CA, USA). We followed an assay protocol published on line at PubChem by University of Pittsburgh Molecular Library Screening Center (http://www.ncbi.nlm.nih.gov/, AID:577). The assay was performed in a 384-well format with 10 ng/well of NS2b-NS3pro enzyme.

[5] = test system: WNV (NY-99 strain) infection of Vero E6 cells; experiment: Dose response assay in CPE based screen (antiviral efficacy); assay type: cell-based, West Nile virus
Method: as §2
After reviewing the data from the primary screen, 110 compounds were selected for a dose-response study. The same compound stocks (10 mM in 100% DMSO) were used to select 7 μL of the compounds into a low-volume, 384-well plate. The dose response plates were prepared using a “stacked-plate” format using a 1:2 dilution series for a total of ten concentrations. By using this format, each entire plate represents one of the ten concentrations in the dilution series. A 5 μL aliquot of each of the serial dilution plates was transferred to the assay plates along with an equal volume but separate transfer of controls. With the addition of 20 μL of cells and 5 μL of virus, the final test concentrations for the dose response screen were 30 μM, 15 μM, 7.5 μM, 3.75 μM, 1.875 μM, 0.9375 μM, 0.4688 μM, 0.2344 μM, 0.1172 μM, and 0.0586 μM all at […].
as §1, §3

[6] = Table 3, Vero E6, read-out: Dose response in CPE based CC50
[7] = Table 1, CPE based dose response, Vero E6, WNV 0.04 MOI, 96 h, read-out: EC50
[8] = Table 1, Vero E6 without virus, 96 h, read-out: CC50
[9] = West Nile virus, Vero C1008, 96 h, Table 1, CPE based dose response, Vero E6, WNV 0.04 MOI, 96 h
[10] = West Nile virus, Vero C1008, read-out: Dose response in CPE based EC50, Table 3, Vero E6, WNV

| SMILES | inhibition at 5 µg/mL ([1]; West Nile virus, Vero C1008, read-out: inhibition on average in primary screen) [%] | protection ([1]; assay optimization, MOI 0.04, 384-well) [%] | EC50 change pattern (time of addition) [2] | EC50 change pattern over the course of infection [2] | EC50 [2] [µM] | SI50 * [3] | EC50 [3] [µM] | EC90 [3] [µM] | CC50 at 96 h [4, 6] [µM] | anti-NS2b-NS3pro activity (in words) (WNV NS2b-NS3pro) | SI50 (Selectivity Index 50, ratio of CC50 to EC50) ([5]; Table 1) | EC50 [5, 7] [µM] | CC50 at 96 h [4, 8] [µM] | EC50 [5, 9] [µM] | EC50 [5, 10] [µM] | Dose response in Titer reduction EC50 ([3]; Vero E6, WNV 0.1 MOI, 48 h post-infection) | inhibition at 15 µM [3] [%] |
| --- | --- | --- | --- | --- | --- | --- | --- | --- | --- | --- | --- | --- | --- | --- | --- | --- | --- |
| COc1c(C)c2c(c(O)c1C/C=C(\C)CCC(=O)O)C(=O)OC2 [MPA, mycophenolic acid, reference compound] | 44.6 | 30 | No Change : EC50_1hr ≈ EC50_4hr ≈ EC50_8hr ≈ EC50_18hr | no change | 2 to 5 | >1000 | 0.03 | 0.94 | > 30 | – | – | – | – | – | – | – | – |
| O=C(O)c1ccccc1Nc1ccccc1 [N-Phenylanthranilic acid, reference compound] | – | – | – | – | – | – | – | – | – | could not detect any significant activity | – | – | – | – | – | – | – |
| Cc1oc(-c2ccccc2Cl)nc1CSCC(=O)N1CCCC1 [SMR000027739] | – | – | – | – | – | – | – | – | – | – | >3.4 | 29.6 | – | – | – | – | – |
| CC(=O)OC[C@H]1O[C@@H](n2ncc(=O)[nH]c2=O)[C@H](OC(C)=O)[C@@H]1OC(C)=O [SMR000059052] | – | – | – | – | – | – | – | – | – | – | >5.0 | 20 | – | – | – | – | – |
| O=C(O)c1ccccc1Nc1ccc([N+](=O)[O-])cc1 [SMR000171908] | – | – | Increase: EC50_1hr ≈ EC50_4hr ≤ EC50_8hr < EC50_18hr | Increase | – | >25 | 1.16 | 6.73 | > 30 | – | >3.3 | – | > 100 | 30.4 | 30.4 | – | – |
| C[C@@H]1Cc2ccccc2N1S(=O)(=O)c1cccc(C(=O)N2CCN(c3ncccn3)CC2)c1 [SMR000370276] | – | – | Increase: EC50_1hr ≈ EC50_4hr ≤ EC50_8hr < EC50_18hr | Increase | – | >5 | – | 6.07 | > 30 | – | >5.3 | – | > 100 | 18.9 | 18.9 | No solution | 98.8 |
| CC(C)C[C@H](NC(=O)c1nc[nH]c1C(=O)N1CCN(C(=O)OC(C)(C)C)CC1)C(=O)OC(C)(C)C [SMR000394098] | – | – | – | – | – | – | – | – | – | – | >5.1 | 19.6 | – | – | – | – | – |
| COc1cc(-c2ccc(Nc3ccccc3C(=O)O)c(OC)c2)ccc1Nc1ccccc1C(=O)O [SRI-19093, Redoxal] | – | – | – | Increase | 3.2 to 6.4 | >200 | 0.13 | 2.14 | > 30 | inhibited viral protease in vitro | >2.4 | – | > 100 | 41 | 41 | – | 93.7 |
| COc1cccc2c(=O)n3c(nc12)/C(=C/c1ccc2c(c1)OCO2)CC3 [SRI-22003] | – | – | Increase: EC50_1hr ≈ EC50_4hr ≤ EC50_8hr < EC50_18hr | Increase | – | >6 | 4.7 | 5.13 | > 30 | – | >8.2 | – | > 100 | 12.2 | 12.2 | – | 98.8 |
